Data on 25 molecules can be found in the supplement of paper PMC10290057.

Assay [1] deals with HCT116. The assay can be described thus: efficacy (fitted maximal change in viability relative to DMSO control); higher = less cytotoxic (negative = loss of viability). Conditions: 48 h.
The test system of assay [2] is HCT116. The assay can be described thus: AC50 cell viability (CellTiter-Glo); higher = less potent. Conditions: 48 h. A general note: ATP-based viability assays read luminescence as a measure of living cells.

Where a name gives a salt, the structure may show the parent alone.
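For AC50 cell viability (CellTiter-Glo) in this document: HCT116 colorectal carcinoma cells screened at five concentrations per compound, luminescent viability scaled between DMSO wells and empty wells on each plate, curves fitted per compound.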
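For efficacy (fitted maximal change in viability relative to DMSO control) in this document: Luminescence-based viability readout, five doses per compound, normalized against on-plate DMSO and empty-well controls, followed by dose-response curve fitting for every drug.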

As to `CC(C)C[C@H](NC(=O)[C@H](CCc1ccccc1)NC(=O)CN1CCOCC1)C(=O)N[C@@H](Cc1ccccc1)C(=O)N[C@@H](CC(C)C)C(=O)[C@@]1(C)CO1` [Carfilzomib], the efficacy in the assay with HCT116 [1] is -93.6%. Besides, the AC50 cell viability with HCT116 [2] came out at 0.0118 µM.

For the molecule `CCCCCCNC(=O)N1\C=C(F)/C(=O)NC1=O` [Carmofur], in the assay on HCT116 [1], the efficacy was -61.6%. In addition, the AC50 cell viability with HCT116 [2] was 4.17 µM.

Consider `CCNc1cc(NC2CCC(O)CC2)nc(Nc2ccc3c(ccn3Cc3ccccc3)c2)n1` (stereo not given) [Cdk4/6 Inhibitor IV], for which the efficacy with HCT116 [1] was -51.1%. In addition, the AC50 cell viability in the assay on HCT116 [2] stood at 20.9 µM.

In the case of `COc1cc2c(Oc3ccc4[nH]c(C)cc4c3F)ncnc2cc1OCCCN1CCCC1` [Cediranib], the efficacy in the assay on HCT116 [1] was -111%. Also, the AC50 cell viability in the assay on HCT116 [2] came out at 14.8 µM.

Turning to `Cc1ccc(-c2cc(C(F)(F)F)nn2-c2ccc([S+](N)(=O)[O-])cc2)cc1` [Celecoxib], the efficacy with HCT116 [1] was -77.8%. For the same molecule, in the assay on HCT116 [2], the AC50 cell viability was 18.6 µM.

In the case of `C/C=C(\C)C(=O)N[C@@H](c1ccccc1)[C@@H](O)C(=O)O[C@H]1C[C@@]2(O)[C@@H](OC(=O)c3ccccc3)[C@@H]3[C@]4(OC(C)=O)CO[C@@H]4C[C@H](O)[C@@]3(C)C(=O)[C@H](OC(C)=O)C(=C1C)C2(C)C` [Cephalomannine], the efficacy in the assay with HCT116 [1] is -63.5%. Further, the AC50 cell viability in the assay with HCT116 [2] was 0.0263 µM.

As for `Cc1cc(Nc2ncc(Cl)c(Nc3ccccc3[S+](=O)([O-])C(C)C)n2)c(OC(C)C)cc1C1CCNCC1` [Ceritinib], the efficacy with HCT116 [1] was -115%. In the assay on HCT116 [2], the AC50 cell viability stood at 13.2 µM.

As to `C/C=C/C/C=C/CCC(=O)[C@H]1O[C@H]1C(N)=O` [Cerulenin], in the assay on HCT116 [1], the efficacy is -80.2%. The same molecule showed an AC50 cell viability in the assay on HCT116 [2] of 16.6 µM.

Regarding `CNCCCOc1cc(F)c(-c2c(Cl)nc3ncnn3c2N[C@@H](C)C(F)(F)F)c(F)c1` [Cevipabulin], in the assay on HCT116 [1], the efficacy was -60.6%. Besides, the AC50 cell viability in the assay on HCT116 [2] came to 0.0525 µM.

On to `Nc1ccc(F)cc1NC(=O)c1ccc(CNC(=O)/C=C/c2cccnc2)cc1` [Chidamide], for which, in the assay on HCT116 [1], the efficacy is -90.4%. Besides, the AC50 cell viability in the assay on HCT116 [2] was 5.9 µM.

With `N=C(NCCCCCCNC(=N)NC(=N)Nc1ccc(Cl)cc1)NC(=N)Nc1ccc(Cl)cc1` [Chlorhexidine], in the assay on HCT116 [1], the efficacy is -93.5%. In the assay with HCT116 [2], the AC50 cell viability came to 20.9 µM.

Consider `Oc1c(Cl)cc(Cl)c2cccnc12` [Chloroxine], for which, in the assay with HCT116 [1], the efficacy was -86.7%. Besides, in the assay with HCT116 [2], the AC50 cell viability turned out to be 13.2 µM.

For `OC1=CC2=C(C(=C1)O)C(=O)\C=C(/O2)C3=CC=CC=C3` [Chrysine], the efficacy with HCT116 [1] is -49.1%. In the assay on HCT116 [2], this molecule gave an AC50 cell viability of 20.9 µM.

In the case of `CC(C)C(=O)OCC(=O)[C@@]12O[C@@H](O[C@@H]1C[C@H]3[C@@H]4CC\C5=C\C(=O)\C=C/[C@]5(C)[C@H]4[C@@H](O)C[C@]23C)C6CCCCC6` [Ciclesonide], in the assay on HCT116 [1], the efficacy was -78.4%. This molecule showed an AC50 cell viability in the assay on HCT116 [2] of 20.9 µM.

`CC/1=C/C(=O)N(O)/C(=C1)C2CCCCC2` [Ciclopirox]: in the assay on HCT116 [1], the efficacy was -89.1%. This molecule also returned an AC50 cell viability with HCT116 [2] of 3.72 µM.

As to `C[C@@H](NCCCc1cccc(C(F)(F)F)c1)c1cccc2ccccc12` [Cinacalcet hydrochloride], the efficacy with HCT116 [1] was -92.6%. In addition, in the assay on HCT116 [2], the AC50 cell viability was determined as 16.6 µM.

For the molecule `Nc1nc(Cl)nc2c1ncn2[C@H]1C[C@H](O)[C@@H](CO)O1` [Cladribine], in the assay with HCT116 [1], the efficacy is -55.8%. In the assay with HCT116 [2], this molecule came in with an AC50 cell viability of 0.295 µM.

As to `Clc1ccc(Cn2c(CN3CCCC3)nc3ccccc32)cc1` [Clemizole hydrochloride], the efficacy in the assay with HCT116 [1] is -93.1%. Also, the AC50 cell viability with HCT116 [2] came out at 23.5 µM.

With `CCN(CC)CCOc1ccc(/C(=C(\Cl)c2ccccc2)c2ccccc2)cc1` [Clomifene citrate], the efficacy in the assay with HCT116 [1] is -90.7%. For the same molecule, the AC50 cell viability in the assay on HCT116 [2] stood at 8.33 µM.

As for `Clc1ccccc1C(c1ccccc1)(c1ccccc1)n1ccnc1` [Clotrimazole], the efficacy in the assay with HCT116 [1] is -81.6%. This molecule also registered an AC50 cell viability with HCT116 [2] of 20.9 µM.

In the case of `CN1CCN(CC1)\C2=N\C3=C(NC4=C2C=CC=C4)C=CC(=C3)Cl` [Clozapine], the efficacy with HCT116 [1] was -99.6%. This molecule also came in with an AC50 cell viability in the assay with HCT116 [2] of 20.9 µM.

Consider `O=C(c1ccc(F)c(F)c1Nc1ccc(I)cc1F)N1CC(O)([C@@H]2CCCCN2)C1` [Cobimetinib], for which the efficacy with HCT116 [1] was -105%. The molecule further came in with an AC50 cell viability with HCT116 [2] of 1.86 µM.

With `COC/1=C/C=C2\C(=C/C1=O)[C@H](CCC3=CC(=C(OC)C(=C23)OC)OC)NC(C)=O` [Colchicine], in the assay with HCT116 [1], the efficacy was -59.9%. The same molecule showed an AC50 cell viability in the assay with HCT116 [2] of 0.0661 µM.

With `CN1CCc2c(n(Cc3ccc(C(=O)NO)cc3)c3ccccc23)C1` [Compound 7], the efficacy in the assay with HCT116 [1] was -98.9%. In the assay on HCT116 [2], this molecule displayed an AC50 cell viability of 26.3 µM.

For `O=[S+]([O-])(Nc1ccc(-c2cccnc2)c2cccnc12)c1cccc(C(F)(F)F)c1` [Compound 22d], the efficacy in the assay on HCT116 [1] was -73.3%. In the assay on HCT116 [2], this molecule showed an AC50 cell viability of 4.17 µM.
